From PMC2837349 (PLoS ONE, 2010)
Where a name gives a salt, the structure may show the parent alone.

Tested on: rhinocerase
Settings: read-out: Km ^a; 0.1M Tris-HCl pH 7.4, 37°C, 7 min; 100 µg enzyme

## Cc1cc(=O)oc2cc(NC(=O)[C@H](CCCNC(=N)N)NC(=O)c3ccccc3)ccc12 [Arg-AMC, Nα-benzoyl-L-arginine 7-amido-4-methylcoumarin.HCl]
  Km: 80 ± 2.02 µM
